Results as given in patent publication US20260232767A1, “INTERLEUKIN-23 RECEPTOR ANTAGONIST PEPTIDES FOR USE IN THE TREATMENT OF PSORIASIS” (Janssen Pharmaceutica NV, priority 2023, published 2026).

System: subjects with moderate-to-severe plaque psoriasis
Test: IGA score, Example 2
Assay type: in vivo, human
Description: Described below is a multicenter, long-term extension (LTE), double-blind, dose-ranging, parallel group interventional study in participants from Example 1 to evaluate the long-term efficacy and safety of the hydrochloride salt of the compound of Formula (I) for the treatment of moderate-to-severe plaque psoriasis. Patients from Example 1 continued to receive the same dose of the compound of Formula (I) for an additional 36-week treatment period with a 4-week safety follow up period after the last administration of the compound of Formula (I). Patients randomized to placebo in Example 1 received the compound of Formula (I) at a dose of 100 mg QD starting at Week 16 of Example 1 (FIG. 21).
Secondary endpoints included additional change from baseline of Example 1 in PASI, IGA, and PSSD at Week 52, including the proportions of subjects that achieved PAST 90, PAST 100, an IGA score of cleared (0) or minimal (1), PSSD symptoms score=0, and PSSD signs score=0.

[1] = Week 20, Placebo → 100 mg QD, N=35
[2] = Week 24, Placebo → 100 mg QD, N=35
[3] = Week 28, Placebo → 100 mg QD, N=35
[4] = Week 32, Placebo → 100 mg QD, N=35
[5] = Week 40, Placebo → 100 mg QD, N=35
[6] = Week 52, Placebo → 100 mg QD, N=35

CC(=O)NCCCC[C@@H]1NC(=O)[C@H](Cc2c[nH]c3c(C)cccc23)NC(=O)[C@H]([C@@H](C)O)NC(=O)[C@H](CC(N)=O)NC(=O)[C@@H](NC(C)=O)C(C)(C)SSC(C)(C)[C@@H](C(=O)N[C@@H](Cc2ccc(OCCN)cc2)C(=O)N[C@@H](Cc2ccc3ccccc3c2)C(=O)NC2(C(=O)N[C@@H](CCC(=O)O)C(=O)N[C@@H](CC(N)=O)C(=O)N[C@@H](Cc3cccnc3)C(=O)N(C)CC(N)=O)CCOCC2)NC1=O [IL-23 receptor antagonist peptide, Ac-[Pen]*-N-T-[W(7-Me)]-[Lys(Ac)]-[Pen]*-Phe[4-(2-aminoethoxy)]-[2-Nal]-[THP]-E-N-[3-Pal]-Sarc-NH2 (*[Pen]-[Pen]* formdisulfidebond)]
IGA Score ≤2 (‘Mild’or better), subjects (%) (Week 20, 100 mg QD, N=43): (72.1%)
IGA Score = 0 (‘Cleared’) or 1 (‘Minimal’), subjects (%) [1]: (28.6%)
IGA Score = 0 (‘Cleared’), subjects (%) [1]: (5.7%)
IGA Score ≤2 (‘Mild’or better), subjects (%) [1]: (71.4%)
IGA Score = 0 (‘Cleared’) or 1 (‘Minimal’), subjects (%) (Week 24, 25 mg BID, N=41): (39.0%)
IGA Score = 0 (‘Cleared’), subjects (%) (Week 24, 25 mg BID, N=41): (19.5%)
IGA Score ≤2 (‘Mild’or better), subjects (%) (Week 24, 25 mg BID, N=41): (75.6%)
IGA Score = 0 (‘Cleared’) or 1 (‘Minimal’), subjects (%) (Week 24, 25 mg QD, N=43): (37.2%)
IGA Score = 0 (‘Cleared’), subjects (%) (Week 24, 25 mg QD, N=43): (16.3%)
IGA Score ≤2 (‘Mild’or better), subjects (%) (Week 24, 25 mg QD, N=43): (67.4%)
IGA Score = 0 (‘Cleared’) or 1 (‘Minimal’), subjects (%) (Week 24, 50 mg QD, N=43): (60.5%)
IGA Score = 0 (‘Cleared’), subjects (%) (Week 24, 50 mg QD, N=43): (32.6%)
IGA Score ≤2 (‘Mild’or better), subjects (%) (Week 24, 50 mg QD, N=43): (81.4%)
IGA Score = 0 (‘Cleared’) or 1 (‘Minimal’), subjects (%) (Week 24, 100 mg BID, N=42): (73.8%)
IGA Score = 0 (‘Cleared’), subjects (%) (Week 24, 100 mg BID, N=42): (38.1%)
IGA Score ≤2 (‘Mild’or better), subjects (%) (Week 24, 100 mg BID, N=42): (78.6%)
IGA Score = 0 (‘Cleared’) or 1 (‘Minimal’), subjects (%) (Week 24, 100 mg QD, N=43): (65.1%)
IGA Score = 0 (‘Cleared’), subjects (%) (Week 24, 100 mg QD, N=43): (23.3%)
IGA Score ≤2 (‘Mild’or better), subjects (%) (Week 24, 100 mg QD, N=43): (76.7%)
IGA Score = 0 (‘Cleared’) or 1 (‘Minimal’), subjects (%) [2]: (54.3%)
IGA Score = 0 (‘Cleared’), subjects (%) [2]: (14.3%)
IGA Score ≤2 (‘Mild’or better), subjects (%) [2]: (85.7%)
IGA Score = 0 (‘Cleared’) or 1 (‘Minimal’), subjects (%) (Week 28, 25 mg BID, N=41): (41.5%)
IGA Score = 0 (‘Cleared’), subjects (%) (Week 28, 25 mg BID, N=41): (19.5%)
IGA Score ≤2 (‘Mild’or better), subjects (%) (Week 28, 25 mg BID, N=41): (73.2%)
IGA Score = 0 (‘Cleared’) or 1 (‘Minimal’), subjects (%) (Week 28, 25 mg QD, N=43): (37.2%)
IGA Score = 0 (‘Cleared’), subjects (%) (Week 28, 25 mg QD, N=43): (18.6%)
IGA Score ≤2 (‘Mild’or better), subjects (%) (Week 28, 25 mg QD, N=43): (65.1%)
IGA Score = 0 (‘Cleared’) or 1 (‘Minimal’), subjects (%) (Week 28, 50 mg QD, N=43): (62.8%)
IGA Score = 0 (‘Cleared’), subjects (%) (Week 28, 50 mg QD, N=43): (16.3%)
IGA Score ≤2 (‘Mild’or better), subjects (%) (Week 28, 50 mg QD, N=43): (76.7%)
IGA Score = 0 (‘Cleared’) or 1 (‘Minimal’), subjects (%) (Week 28, 100 mg BID, N=42): (64.3%)
IGA Score = 0 (‘Cleared’), subjects (%) (Week 28, 100 mg BID, N=42): (42.9%)
IGA Score ≤2 (‘Mild’or better), subjects (%) (Week 28, 100 mg BID, N=42): (78.6%)
IGA Score = 0 (‘Cleared’) or 1 (‘Minimal’), subjects (%) (Week 28, 100 mg QD, N=43): (62.8%)
IGA Score = 0 (‘Cleared’), subjects (%) (Week 28, 100 mg QD, N=43): (25.6%)
IGA Score ≤2 (‘Mild’or better), subjects (%) (Week 28, 100 mg QD, N=43): (74.4%)
IGA Score = 0 (‘Cleared’) or 1 (‘Minimal’), subjects (%) [3]: (60.0%)
IGA Score = 0 (‘Cleared’), subjects (%) [3]: (17.1%)
IGA Score ≤2 (‘Mild’or better), subjects (%) [3]: (85.7%)
IGA Score = 0 (‘Cleared’) or 1 (‘Minimal’), subjects (%) (Week 32, 25 mg BID, N=41): (46.3%)
IGA Score = 0 (‘Cleared’), subjects (%) (Week 32, 25 mg BID, N=41): (22.0%)
IGA Score ≤2 (‘Mild’or better), subjects (%) (Week 32, 25 mg BID, N=41): (73.2%)
IGA Score = 0 (‘Cleared’) or 1 (‘Minimal’), subjects (%) (Week 32, 25 mg QD, N=43): (39.5%)
IGA Score = 0 (‘Cleared’), subjects (%) (Week 32, 25 mg QD, N=43): (18.6%)
IGA Score ≤2 (‘Mild’or better), subjects (%) (Week 32, 25 mg QD, N=43): (60.5%)
IGA Score = 0 (‘Cleared’) or 1 (‘Minimal’), subjects (%) (Week 32, 50 mg QD, N=43): (58.1%)
IGA Score = 0 (‘Cleared’), subjects (%) (Week 32, 50 mg QD, N=43): (30.2%)
IGA Score ≤2 (‘Mild’or better), subjects (%) (Week 32, 50 mg QD, N=43): (79.1%)
IGA Score = 0 (‘Cleared’) or 1 (‘Minimal’), subjects (%) (Week 32, 100 mg BID, N=42): (66.7%)
IGA Score = 0 (‘Cleared’), subjects (%) (Week 32, 100 mg BID, N=42): (40.5%)
IGA Score ≤2 (‘Mild’or better), subjects (%) (Week 32, 100 mg BID, N=42): (78.6%)
IGA Score = 0 (‘Cleared’) or 1 (‘Minimal’), subjects (%) (Week 32, 100 mg QD, N=43): (67.4%)
IGA Score = 0 (‘Cleared’), subjects (%) (Week 32, 100 mg QD, N=43): (25.6%)
IGA Score ≤2 (‘Mild’or better), subjects (%) (Week 32, 100 mg QD, N=43): (76.7%)
IGA Score = 0 (‘Cleared’) or 1 (‘Minimal’), subjects (%) [4]: (65.7%)
IGA Score = 0 (‘Cleared’), subjects (%) [4]: (20.0%)
IGA Score ≤2 (‘Mild’or better), subjects (%) [4]: (80.0%)
IGA Score = 0 (‘Cleared’) or 1 (‘Minimal’), subjects (%) (Week 40, 25 mg BID, N=41): (31.7%)
IGA Score = 0 (‘Cleared’), subjects (%) (Week 40, 25 mg BID, N=41): (17.1%)
IGA Score ≤2 (‘Mild’or better), subjects (%) (Week 40, 25 mg BID, N=41): (68.3%)
IGA Score = 0 (‘Cleared’) or 1 (‘Minimal’), subjects (%) (Week 40, 25 mg QD, N=43): (41.9%)
IGA Score = 0 (‘Cleared’), subjects (%) (Week 40, 25 mg QD, N=43): (11.6%)
IGA Score ≤2 (‘Mild’or better), subjects (%) (Week 40, 25 mg QD, N=43): (67.4%)
IGA Score = 0 (‘Cleared’) or 1 (‘Minimal’), subjects (%) (Week 40, 50 mg QD, N=43): (58.1%)
IGA Score = 0 (‘Cleared’), subjects (%) (Week 40, 50 mg QD, N=43): (23.3%)
IGA Score ≤2 (‘Mild’or better), subjects (%) (Week 40, 50 mg QD, N=43): (79.1%)
IGA Score = 0 (‘Cleared’) or 1 (‘Minimal’), subjects (%) (Week 40, 100 mg BID, N=42): (66.7%)
IGA Score = 0 (‘Cleared’), subjects (%) (Week 40, 100 mg BID, N=42): (40.5%)
IGA Score ≤2 (‘Mild’or better), subjects (%) (Week 40, 100 mg BID, N=42): (78.6%)
IGA Score = 0 (‘Cleared’) or 1 (‘Minimal’), subjects (%) (Week 40, 100 mg QD, N=43): (65.1%)
IGA Score = 0 (‘Cleared’), subjects (%) (Week 40, 100 mg QD, N=43): (27.9%)
IGA Score ≤2 (‘Mild’or better), subjects (%) (Week 40, 100 mg QD, N=43): (69.8%)
IGA Score = 0 (‘Cleared’) or 1 (‘Minimal’), subjects (%) [5]: (57.1%)
IGA Score = 0 (‘Cleared’), subjects (%) [5]: (31.4%)
IGA Score ≤2 (‘Mild’or better), subjects (%) [5]: (74.3%)
IGA Score = 0 (‘Cleared’) or 1 (‘Minimal’), subjects (%) (Week 52, 25 mg BID, N=41): (46.3%)
IGA Score = 0 (‘Cleared’), subjects (%) (Week 52, 25 mg BID, N=41): (19.5%)
IGA Score ≤2 (‘Mild’or better), subjects (%) (Week 52, 25 mg BID, N=41): (63.4%)
IGA Score = 0 (‘Cleared’) or 1 (‘Minimal’), subjects (%) (Week 52, 25 mg QD, N=43): (37.2%)
IGA Score = 0 (‘Cleared’), subjects (%) (Week 52, 25 mg QD, N=43): (14.0%)
IGA Score ≤2 (‘Mild’or better), subjects (%) (Week 52, 25 mg QD, N=43): (55.8%)
IGA Score = 0 (‘Cleared’) or 1 (‘Minimal’), subjects (%) (Week 52, 50 mg QD, N=43): (60.5%)
IGA Score = 0 (‘Cleared’), subjects (%) (Week 52, 50 mg QD, N=43): (23.3%)
IGA Score ≤2 (‘Mild’or better), subjects (%) (Week 52, 50 mg QD, N=43): (79.1%)
IGA Score = 0 (‘Cleared’) or 1 (‘Minimal’), subjects (%) (Week 52, 100 mg BID, N=42): (73.8%)
IGA Score = 0 (‘Cleared’), subjects (%) (Week 52, 100 mg BID, N=42): (42.9%)
IGA Score ≤2 (‘Mild’or better), subjects (%) (Week 52, 100 mg BID, N=42): (76.2%)
IGA Score = 0 (‘Cleared’) or 1 (‘Minimal’), subjects (%) (Week 52, 100 mg QD, N=43): (60.5%)
IGA Score = 0 (‘Cleared’), subjects (%) (Week 52, 100 mg QD, N=43): (30.2%)
IGA Score ≤2 (‘Mild’or better), subjects (%) (Week 52, 100 mg QD, N=43): (67.4%)
IGA Score = 0 (‘Cleared’) or 1 (‘Minimal’), subjects (%) [6]: (65.7%)
IGA Score = 0 (‘Cleared’), subjects (%) [6]: (31.4%)
IGA Score ≤2 (‘Mild’or better), subjects (%) [6]: (77.1%)
